Laboratory results as given in US20120028880A1, “VEGFR-1/NRP-1 TARGETING PEPTIDES” (priority 2007, published 2012).
pIC50: −log10 of the molar value. Read-outs that look alike come from different tables or passages of the source. Square brackets hold non-standard residues; d marks the D form. Ends that are not written are not given here. Peptide text beside a SMILES is read from it.

Assays:
[1] = target: T1, VEGFR-1 (Homo sapiens, UniProt P17948); test: Phage binding competition assay, immobilized VEGFR-1
T1 construct: purchased R&D Systems (Minneapolis, Minn.)
T1 sequence (P17948 27-1338, species assumed): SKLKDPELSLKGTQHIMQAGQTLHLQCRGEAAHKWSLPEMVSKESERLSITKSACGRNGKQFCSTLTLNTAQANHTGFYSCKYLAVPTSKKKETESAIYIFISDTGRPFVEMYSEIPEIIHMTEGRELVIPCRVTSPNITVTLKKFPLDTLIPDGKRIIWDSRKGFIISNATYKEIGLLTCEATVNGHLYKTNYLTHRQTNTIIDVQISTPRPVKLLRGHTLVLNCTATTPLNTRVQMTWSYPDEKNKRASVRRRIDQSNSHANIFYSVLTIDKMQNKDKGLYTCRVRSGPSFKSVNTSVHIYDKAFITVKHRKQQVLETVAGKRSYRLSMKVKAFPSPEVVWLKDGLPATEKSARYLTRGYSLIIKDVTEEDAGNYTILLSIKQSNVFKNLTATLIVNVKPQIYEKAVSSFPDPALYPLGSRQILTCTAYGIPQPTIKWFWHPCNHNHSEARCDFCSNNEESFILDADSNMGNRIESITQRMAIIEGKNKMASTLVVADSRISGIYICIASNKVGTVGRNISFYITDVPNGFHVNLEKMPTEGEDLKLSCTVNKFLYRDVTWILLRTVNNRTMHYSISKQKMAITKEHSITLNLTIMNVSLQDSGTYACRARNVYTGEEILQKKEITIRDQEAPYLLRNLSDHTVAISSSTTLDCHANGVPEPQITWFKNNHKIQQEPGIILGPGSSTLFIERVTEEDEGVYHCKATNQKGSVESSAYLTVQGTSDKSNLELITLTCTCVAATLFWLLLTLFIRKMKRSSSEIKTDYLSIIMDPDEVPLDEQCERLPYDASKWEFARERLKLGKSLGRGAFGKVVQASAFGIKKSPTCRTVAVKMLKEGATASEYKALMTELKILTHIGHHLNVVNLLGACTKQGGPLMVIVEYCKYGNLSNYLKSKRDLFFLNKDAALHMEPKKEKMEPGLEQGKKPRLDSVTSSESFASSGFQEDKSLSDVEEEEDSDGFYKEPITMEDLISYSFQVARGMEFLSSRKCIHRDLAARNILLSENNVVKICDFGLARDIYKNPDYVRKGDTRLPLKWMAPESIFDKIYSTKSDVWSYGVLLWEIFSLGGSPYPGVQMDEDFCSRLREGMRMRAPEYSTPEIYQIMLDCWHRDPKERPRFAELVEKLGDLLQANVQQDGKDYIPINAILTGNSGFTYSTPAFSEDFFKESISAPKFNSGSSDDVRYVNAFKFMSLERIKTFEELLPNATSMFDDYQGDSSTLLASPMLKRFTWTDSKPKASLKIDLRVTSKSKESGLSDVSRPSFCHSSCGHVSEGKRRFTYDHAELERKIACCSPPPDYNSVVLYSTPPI
Protocol: (§1) Phage assay. Phage was prepared by infection of log-phase culture of E. coli K91kan, and overnight growth in Luria-Bertani (LB) media supplemented with kanamycin (100 μg/ml) and tetracyclin (20 μg/ml) at 37° C. and 250 rpm. Phage was precipiated from the media supernatant by the PEG/NaCl method, and phage titer determined by serial dilution and colony counting (Giordano, 2001). For the phage binding and competition assays, VEGFR-1, NRP-1 or BSA (10 μg/ml in PBS) was immobilized on microtiter wells overnight at 4° C. Wells were washed twice, blocked with PBS 3% BSA for 2 h at room temperature and incubated with 10^9 TU of CPQPRPLC or negative control insertless (Fd-tet) phage in PBS 3% BSA. After 1 h at room temperature, wells were washed 10 times with PBS and phage bound to the immobilized receptors recovered by bacterial infection (Giordano, 2001).

[2] = target: T2, NRP-1 (Homo sapiens, UniProt O14786); test: Phage binding competition assay, immobilized NRP-1
T2 construct: purchased R&D Systems (Minneapolis, Minn.)
T2 sequence (O14786 22-923): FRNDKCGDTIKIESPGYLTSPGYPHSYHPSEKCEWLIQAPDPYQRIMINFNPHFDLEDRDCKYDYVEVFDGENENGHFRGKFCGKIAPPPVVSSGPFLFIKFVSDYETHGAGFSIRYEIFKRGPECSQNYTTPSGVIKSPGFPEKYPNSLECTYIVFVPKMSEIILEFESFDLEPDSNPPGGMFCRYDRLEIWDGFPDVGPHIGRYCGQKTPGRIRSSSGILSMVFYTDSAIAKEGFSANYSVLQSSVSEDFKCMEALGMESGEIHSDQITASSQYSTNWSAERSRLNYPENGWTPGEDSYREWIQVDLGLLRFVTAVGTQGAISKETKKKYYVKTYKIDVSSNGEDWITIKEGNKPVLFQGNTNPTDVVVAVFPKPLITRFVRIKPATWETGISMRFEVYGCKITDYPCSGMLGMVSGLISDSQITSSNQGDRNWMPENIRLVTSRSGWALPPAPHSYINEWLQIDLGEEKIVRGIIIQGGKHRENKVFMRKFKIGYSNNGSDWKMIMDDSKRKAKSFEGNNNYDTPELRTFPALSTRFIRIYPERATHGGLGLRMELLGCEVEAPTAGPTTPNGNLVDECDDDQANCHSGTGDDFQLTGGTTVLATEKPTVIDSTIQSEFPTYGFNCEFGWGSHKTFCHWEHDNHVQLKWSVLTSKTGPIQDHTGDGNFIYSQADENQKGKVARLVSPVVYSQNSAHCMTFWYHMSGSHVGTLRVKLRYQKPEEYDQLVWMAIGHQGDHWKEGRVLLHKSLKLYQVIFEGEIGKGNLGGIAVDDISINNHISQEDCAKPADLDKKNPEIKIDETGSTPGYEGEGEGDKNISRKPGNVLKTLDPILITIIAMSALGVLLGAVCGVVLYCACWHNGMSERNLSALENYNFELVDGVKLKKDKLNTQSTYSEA
Protocol: as §1

[3] = test system: pancreatin; test: Protease resistance assay; format: in vitro ADME; conditions: increasing concentrations of pancreatin, highest ratio 400 pg/nmol; 2 h at 37° C.; MALDI-TOF
Protocol: Protease resistance assay. The D(LPR) and RPL peptides were diluted to 500 μg/ml in PBS and incubated with increasing concentrations of pancreatin (Sigma-Aldrich, St. Louis, Mo.) for 2 h at 37° C. Samples were then analyzed by mass spectroscopy (MALDI-TOF).

[4] = Weight loss in diet-induced obese mice; format: in vivo, mouse
Excerpt: The present inventors thus carried out studies to assess the ability of the LPR VEGFR-1 targeting peptides of the present invention to target fat tissue and thereby reduce weight in diet-induced obese mice. To this end, diet-induced obese mice were divided in groups and treated with the VEGFR-1/NRP-1 targeting peptide. C57BL/6 ]-60% DIO mice (36-weeks old) were purchased from The Jackson Laboratory. These animals were fed on a high calorie diet (J-60%) to produce a diet-induced obesity (DIO) phenotype. Animals were divided in groups and treated daily with: [Group 1]D(CLPRC) (SEQ ID NO:7) (N=5); [Group 2] CKGGRAKDC-GG-D(KLAKLAK)2 (SEQ ID NO:9) (N=3); [Group 3]D(CLPRC) combined with CKGGRAKDC-GG-D(KLAKLAK)2 (SEQ ID NO:10) (N=4); [Group 4] vehicle only (N=4). All animals were hydrated by intraperitoneally administration of 1 ml of saline solution (0.9% sodium chloride solution, USP quality) 30 minutes prior to treatment. Mice were treated daily with D(CLPRC) dissolved in phosphate buffered saline vehicle (PBS) (100 μl total injection) at a 50 mg/Kg/body weight dose (Groups 1 and 3); CKGGRAKDC-GG-D(KLAKLAK)2 (SEQ ID NO:9) in PBS was administered by subcutaneously (100 total volume) at 3 mg/Kg (Group 2) or at 1 mg/Kg when in combination with D(CLPRC) (Group 3) 5 days a week (Monday thru Friday). Mice were weighted once a week.

[5] = test system: white fat; conditions: previous studies of the inventors; cited from earlier work
[6] = target: T1, VEGFR-1; conditions: Giordano et al., 2001; read-out: IC50 previously described for VEGFR-1; cited from earlier work
[7] = target: T2, NRP-1; conditions: Giordano et al., 2001; read-out: IC50 previously described for NRP-1; cited from earlier work
[8] = test system: EF43.fgf4 derived tumors; test: Tumor growth, EF43.fgf4 breast cancer model; format: in vivo, mouse
Protocol: Tumor growth. The EF43.fgf4 cells were cultured in Dulbelco's modified Eegles medium supplemented with fetal bovine serum, glutamine and antibiotics. Cells were harvested before reaching confluence and injected subcutaneously in the mammary fatpad of Balb/c mice. Mier 10 days, tumor reached ˜50-80 mm^3 and were then separated into four groups with seven animals (N=7). Animals in each group were treated with either vehicle only (phosphate saline buffered solution) or with control peptide D(CAPAC) (SEQ ID NO:6) or D(LPR) (at 50 mg/Kg) or with the cyclic version D(CLPRC) (SEQ ID NO:7) (at 25 mg/Kg). Tumor volume was calculated by measuring the length of the long (L) and the short (S) sides of each tumor (V=S^2×L×[…]).
Statistical analysis. For the in vivo experiments, statistical significance of the difference was computed by Kruskal-Wallis test (non parametric one factor ANOVA method) with p<0.05 for each treatment day. […] Multiple comparisons were adjusted by Bejamini & Hochberg method. All the statistical analysis was computed using The R (Version 2.4.1) Project for Statistical Computing.

[9] = fat-zapper alone, 3 mg/Kg subcutaneously, obese mice
[10] = obese C57BL/6 mice, 50 mg/Kg daily intraperitoneally, over the treatment period

CC(C)C[C@@H](N)C(=O)N1CCC[C@@H]1C(=O)N[C@H](CCCNC(=N)N)C(=O)O [D(LPR), D-Leu-D-Pro-D-Arg] (H-[dL]-[dP]-[dR]-OH)
pIC50 [1]: 11.00 to 12.00 | pIC50 [2]: 11.00 to 12.00 | proteolytic degradation by pancreatin (breakdown products by mass spectroscopy) [3]: No breakdown products were observed

CC(C)C[C@H](NC(=O)[C@@H]1CCCN1C(=O)[C@@H](N)CCCNC(=N)N)C(=O)O [RPL, L-Arg-L-Pro-L-Leu, reference compound] (H-Arg-Pro-Leu-OH)
proteolytic degradation by pancreatin (breakdown products by mass spectroscopy) [3]: marked degradation

CKGGRAKDC-GG-D(KLAKLAK)2 (CKGGRAKDCGG[dK][dL][dA][dK][dL][dA][dK][dK][dL][dA][dK][dL][dA][dK]; cysteine pairing not given here) [fat-zapper, homing peptide … conjugated to the proapoptotic peptide D(KLAKLAK)2, reference compound]
weight loss [4, 9]: about 10 grams | weight loss, % body weight [4, 9]: 20 % body weight | therapeutic dose that induces fat ablation [5]: ≥ 3 mg/Kg/body weight

CPQPRPLC
pIC50 [6]: ~9.00 | pIC50 [7]: 7.00 to 7.30

D(Cys Leu Pro Arg Cys) ([dC][dL][dP][dR][dC]; also: cyclic, ring type not given here) [D(CLPRC)]
effect on tumor volume ([8]; 25 mg/Kg daily, Balb/c mice): significant reduction in tumor volume | effect on tumor volume (FIG. 3 legend) ([8]; legend: 50 mg/Kg daily, after five days of treatment, compared to control animals): reduced tumor volume | weight loss [4, 10]: about 3 grams | weight loss, % of body weight [4, 10]: approx. 6 % of body weight
